These results are taken from patent publication US10130677B2, “Antimicrobial peptide and uses thereof” (priority 2013, dated 2018).

Where two headings read alike, the source gives them in different places.

The experiment deals with S. aureus JAR060131. The experiment is classed as cell-based, Staphylococcus aureus. To be noted: for IC99.9: approx. 1 × 10^6 CFU/ml S. aureus JAR, within 2 hrs (Table 2). The method, then:
Polypeptides of the invention preferably have an in vitro IC99.9 of at most 150 μM after 2 hours at 37° C. against at least one microbial species in the presence of 50% plasma. Said IC99.9 is preferably determined in accordance with a method for determining the antimicrobial activity as described herein in the Examples. Said method described in the Examples for determining antimicrobial activity of microbes not associated with biofilm involves the mixing of 50 microL of a solution of a polypeptide in PBS with addition of human plasma at a final concentration of 50% and 20 microL of bacterial suspension with 5×10^6 CFU per mL of PBS in a well. After incubation of this mixture for 2 hours at 37° C. under shaking conditions, a sample is used for assessment of the bacterial counts. The lowest peptide concentration at which there is 99.9% of bacteria killed, is called the inhibitory concentration (IC) 99.9. Bacterial counts can be determined by manual CFU counting. For determining antibacterial activity for instance 1×10^6 CFU/ml bacteria are used, for determining antifungal activity for instance 1×10^5 cells/ml are used.
Peptides were incubated with 1×10^6 CFU/ml of a mid-logarithmic culture of S. aureus JAR060131, methicillin resistant S. aureus (MRSA) LUH14616, Staphylococcus epidermidis RP62a, and Pseudomonas aeruginosa PAO1 in PBS without or with addition of pooled human plasma (Sanquin, Amsterdam, the Netherlands) at a final concentration of 50%. Antimicrobial activity is expressed as the 99.9% lethal concentration (LC99.9), i.e., the lowest peptide concentration which killed ≥99.9% of bacteria after 2 hours of incubation at 37° C. under shaking conditions.

In the case of “Ac-LKRLYKALAKLIKRLYRYLKKPVR-NH2 [Peptide P252, J LKRLYKALAKLIKRLYRYLKKPVR B]”, the LC99.9 (50% plasma, experiment 2013.01.15 (Table 6)) was determined as 51.2 µM; the LC99.9 (50% plasma, experiment 2013.01.18 (Table 6)) was 12.8 µM; the LC99.9 (PBS, experiment 2013.01.15 (Table 6)) turned out to be 1.6 µM; the LC99.9 (PBS, experiment 2013.01.18 (Table 6)) stood at 0.8 µM.
Consider “J LKKLWKRLARLLKRFIRQLRRPVR B (Ac-LKKLWKRLARLLKRFIRQLRRPVR-NH2) [Peptide P147]”, for which the IC99.9 was determined as 51.2 µM (50% plasma) and 1.6 µM (PBS).
In the same order, the values of “J LKKLWKRLARLWKRIIRQLKKPVR B (Ac-LKKLWKRLARLWKRIIRQLKKPVR-NH2) [Peptide P160]” are 25.6 µM and 1.6 µM.
In turn, “J LKKLWKRVFRIWKRIFRYLKRPVR B (Ac-LKKLWKRVFRIWKRIFRYLKRPVR-NH2) [Peptide P139]” registered an IC99.9 (50% plasma) of 51.2 µM and an IC99.9 (PBS) of 0.8 µM.
For “J LKKLYKRLFKILKRILRYLRKPVR B (Ac-LKKLYKRLFKILKRILRYLRKPVR-NH2) [Peptide P146]”, the IC99.9 is, setting by setting: (50% plasma) 51.2 µM; (PBS) 1.6 µM.
“J LKKLYKRLFKLWKRLYRYLKKPVR B (Ac-LKKLYKRLFKLWKRLYRYLKKPVR-NH2) [Peptide P151]”: the IC99.9 runs as follows: (50% plasma) 25.6 µM; (PBS) 1.6 µM.
As to “J LKKLYKRVAKIWKRWIRYLKKPVR B (Ac-LKKLYKRVAKIWKRWIRYLKKPVR-NH2) [Peptide P144]”, for the setting “50% plasma”, the “fold increase of activity in the presence of plasma as compared to OP-145” value (shortened to “fold increase of activity”) amounted to 8 fold and the IC99.9 stood at 25.6 µM. The substance also gave an IC99.9 (PBS) of 1.6 µM.
On to “J LKKVWKRVARLIKRWFRYLRRPVR B [Peptide P150]”, for which the IC99.9 (50% plasma) worked out at 25.6 µM and the IC99.9 (PBS) amounted to 1.6 µM.
Consider “J LKKVWKRVFRILKRFLRYLKRPVR B (Ac-LKKVWKRVFRILKRFLRYLKRPVR-NH2) [Peptide P157]”, for which the IC99.9 runs as follows: (50% plasma) 51.2 µM; (PBS) 0.8 µM.
As to “J LKKVYKRLARLLKRYIRYLRRPVR B (Ac-LKKVYKRLARLLKRYIRYLRRPVR-NH2) [Peptide P149]”, where the note is “50% plasma”, the “fold increase of activity” value is on record as 2 fold and the IC99.9 was 102.4 µM. This substance also showed an IC99.9 (PBS) of 1.6 µM.
Turning to “J LKKVYKRVARLIKRLFRYLKRPVR B [Peptide P155]”, under “50% plasma”, the “fold increase of activity” value was 2 fold and the IC99.9 came out at 102.4 µM. Under “PBS”, this substance returned an IC99.9 of 1.6 µM.
“J LKRLWKRLFKILKRYYRYLRRPVR B (Ac-LKRLWKRLFKILKRYYRYLRRPVR-NH2) [Peptide P162]” had an IC99.9 (50% plasma) of 25.6 µM and an IC99.9 (PBS) of 1.6 µM.
In the same order, the values of “J LRKLWKRLAKIIKRLYRYLRRPVR B (Ac-LRKLWKRLAKIIKRLYRYLRRPVR-NH2) [Peptide P154]” are 51.2 µM and 1.6 µM.
Turning to “J LRKLWKRVVKIWKRYLRQLRRPVR B (Ac-LRKLWKRVVKIWKRYLRQLRRPVR-NH2) [Peptide P153]”, the IC99.9 is, setting by setting: (50% plasma) 25.6 µM; (PBS) 1.6 µM.
Substance “J LRRLWKRLVKILKRWFRYLRRPVR B (Ac-LRRLWKRLVKILKRWFRYLRRPVR-NH2) [Peptide P142]” showed an IC99.9 (50% plasma) of 51.2 µM and an IC99.9 (PBS) of 0.8 µM.
For the substance “J LRRLWKRLVKLWKRFFRYLKKPVR B [Peptide P156]”, the IC99.9 by setting is: (50% plasma) 51.2 µM; (PBS) 1.6 µM.
The matching figures for “J LRRLWKRLVRIIKRIYRQLKRPVR B (Ac-LRRLWKRLVRIIKRIYRQLKRPVR-NH2) [Peptide P140]”: 25.6 µM and 1.6 µM.
The matching figures for “J LRRLWKRVFKIIKRLFRQLKKPVR B (Ac-LRRLWKRVFKIIKRLFRQLKKPVR-NH2) [Peptide P163]”: 25.6 µM and 0.8 µM.
As to “J LRRLYKRVFRLLKRWWRYLKRPVR B (Ac-LRRLYKRVFRLLKRWWRYLKRPVR-NH2) [Peptide P141]”, the IC99.9 by setting is: (50% plasma) 25.6 µM; (PBS) 0.8 µM.
For “J LRRLYKRVVKLWKRLFRQLRRPVR B (Ac-LRRLYKRVVKLWKRLFRQLRRPVR-NH2) [Peptide P143]”, where the note is “50% plasma”, the “fold increase of activity” value is reported as 4 fold and the IC99.9 is 51.2 µM. Where the note is “PBS”, this substance had an IC99.9 of 1.6 µM.
On to “J LRRVWKRVARIIKRLYRYLKRPVR B (Ac-LRRVWKRVARIIKRLYRYLKRPVR-NH2) [Peptide P161]”, for which the IC99.9 reads like this: (50% plasma) 25.6 µM; (PBS) 1.6 µM.
For the substance “J LRRVYKRLARLIKRYLRQLKKPVR B (Ac-LRRVYKRLARLIKRYLRQLKKPVR-NH2) [Peptide P152]”, the IC99.9 by setting is: (50% plasma) 25.6 µM; (PBS) 1.6 µM.
The matching figures for “J LRRVYKRLFRLWKRIIRQLRRPVR B (Ac-LRRVYKRLFRLWKRIIRQLRRPVR-NH2) [Peptide P158]”: 25.6 µM and 1.6 µM.
